Data published in patent US7858644B2, “EP4 receptor antagonists” (Asterand UK Limited, priority 2003, dated 2010).

Experiments:
human EP4 receptor = molecular target: T1, human EP4 receptor (Homo sapiens, UniProt P35408); experiment: Binding ability to human EP4 receptor ([3H]PGE2 displacement); settings: read-out: pKi EP4 (converted)
T1 construct: expressed in transfected cells
Protocol: (§1) Membranes were prepared from cells stably transfected with human EP receptor cDNA. In brief, cells were cultured to confluency, scraped from culture flasks, and centrifuged (800 g, 8 minutes, 4° C.). Cells were twice washed in ice cold homogenisation buffer containing 10 mMTris-HCl, 1 mM EDTA. 2Na, 250 mM sucrose, 1 mM PMSF, 0.3 mM indomethacin, pH 7.4, homogenised and re-centrifuged as before. The supernatant was stored on ice and pellets re-homogenised and re-spun. Supernatants were pooled and centrifuged at 40000 g, 10 minutes, 4° C. Resultant membrane pellets were stored at −80° C. until use.
(§2) Incubations were performed at suitable temperatures and for suitable times to allow equilibrium to be reached. Non-specific binding was determined in the presence of 10 uM PGE2. Bound and free radiolabel was separated by vacuum manifold filtration using appropriate wash buffers, and bound radiolabel was determined by scintillation counting. Constituents of each of the buffers are included in table 1 below.
(§3) This approach follows that set out in Kenakin, T. P., Pharmacologic analysis of drug receptor interaction. Raven Press, New York, 2nd edition.

human EP2 receptor = molecular target: T2, human EP2 receptor (Homo sapiens, UniProt P43116); experiment: Binding ability to human EP2 receptor ([3H]PGE2 displacement); settings: read-out: pKi EP2 (converted)
T2 construct: expressed in transfected cells
T2 sequence (P43116 whole entry): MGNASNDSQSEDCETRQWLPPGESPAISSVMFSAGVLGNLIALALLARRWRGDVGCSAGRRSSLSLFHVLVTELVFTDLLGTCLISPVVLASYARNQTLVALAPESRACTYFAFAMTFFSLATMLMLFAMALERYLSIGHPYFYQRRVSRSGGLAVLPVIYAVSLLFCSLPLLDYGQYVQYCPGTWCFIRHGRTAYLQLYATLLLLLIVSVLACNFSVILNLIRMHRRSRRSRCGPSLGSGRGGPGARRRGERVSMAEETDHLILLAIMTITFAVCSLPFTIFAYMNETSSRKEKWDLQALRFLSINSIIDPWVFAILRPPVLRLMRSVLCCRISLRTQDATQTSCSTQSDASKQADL
Protocol: as §1
as §2, with “For assay, membranes expressing human EP4, EP3, EP2 or EP1 receptors were incubated in Millipore (MHVBN45) plates containing assay buffer, radiolabelled [^3H]PGE2 and 0.1 to 10 000 nM concentrations of compounds. Incubations” for “Incubations”
as §3

human EP3 receptor = molecular target: T3, human EP3 receptor (Homo sapiens, UniProt P43115); experiment: Binding ability to human EP3 receptor ([3H]PGE2 displacement); settings: membranes from cells stably transfected with human EP receptor cDNA; [3H]PGE2 2.5 nM; Cheng-Prusoff from IC50; read-out: pKi EP3 (converted)
T3 construct: expressed in transfected cells
T3 sequence (P43115 1-390): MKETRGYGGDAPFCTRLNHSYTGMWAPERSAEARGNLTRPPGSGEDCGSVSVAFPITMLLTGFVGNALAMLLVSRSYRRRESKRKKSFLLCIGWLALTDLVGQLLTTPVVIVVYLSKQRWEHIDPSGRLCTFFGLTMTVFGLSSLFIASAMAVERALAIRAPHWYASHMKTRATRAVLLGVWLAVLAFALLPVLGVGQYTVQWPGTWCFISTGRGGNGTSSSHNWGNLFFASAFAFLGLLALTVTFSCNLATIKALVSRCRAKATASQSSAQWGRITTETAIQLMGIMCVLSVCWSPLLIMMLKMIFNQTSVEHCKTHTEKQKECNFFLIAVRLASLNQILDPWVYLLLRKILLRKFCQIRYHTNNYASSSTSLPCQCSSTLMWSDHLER
Protocol: as §1
as §2, with “For assay, membranes expressing human EP4, EP3, EP2 or EP1 receptors were incubated in Millipore (MHVBN45) plates containing assay buffer, radiolabelled [^3H]PGE2 and 0.1 to 10 000 nM concentrations of compounds. Incubations” for “Incubations”
as §3

T1 sequence (P35408 whole entry): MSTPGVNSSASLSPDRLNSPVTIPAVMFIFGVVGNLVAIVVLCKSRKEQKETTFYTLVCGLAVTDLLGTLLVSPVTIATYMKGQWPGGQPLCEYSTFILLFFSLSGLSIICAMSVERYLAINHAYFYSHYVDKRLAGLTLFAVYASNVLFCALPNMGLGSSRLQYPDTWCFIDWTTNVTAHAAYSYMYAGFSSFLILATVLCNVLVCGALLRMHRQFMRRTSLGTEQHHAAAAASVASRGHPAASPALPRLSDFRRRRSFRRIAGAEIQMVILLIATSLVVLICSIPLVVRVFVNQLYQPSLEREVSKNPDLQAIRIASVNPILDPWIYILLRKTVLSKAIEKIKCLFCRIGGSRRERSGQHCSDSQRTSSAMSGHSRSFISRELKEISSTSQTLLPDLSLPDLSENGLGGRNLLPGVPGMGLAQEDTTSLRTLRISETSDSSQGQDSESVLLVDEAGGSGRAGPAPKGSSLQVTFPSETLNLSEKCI

Row | Ki (human EP4 receptor) | Ki (human EP2 receptor) | Ki (human EP3 receptor) | SMILES
1 | < 0.316 µM | > 10 µM | > 10 µM | COc1ccc(-c2ccc(NC(=O)c3cc(C(=O)NS(=O)(=O)c4ccccc4)oc3C)cc2)cc1 [Compound 25, 5-Benzenesulfonylaminocarbonyl-2-methyl-furan-3-carboxylic acid (4′-methoxy-biphenyl-4-yl)-amide]
2 | < 1 µM | > 3.16 µM | > 10 µM | Cc1oc(CCC(=O)NS(=O)(=O)c2ccccc2)cc1COc1ccc(-c2ccccc2)cc1 [Compound 38, N-{3-[4-(Biphenyl-4-yloxymethyl)-5-methyl-furan-2-yl]-propionyl}-benzene sulfonamide]
3 | < 0.1 µM | > 10 µM | > 10 µM | COc1ccc(-c2ccc(OCc3cc(CCC(=O)O)oc3C)cc2)cc1 [Compound 39, 3-[4-(4′-Methoxy-biphenyl-4-yloxymethyl)-5-methyl-furan-2-yl]-propionic acid]
4 | < 0.1 µM | > 10 µM | > 10 µM | COc1ccc(-c2ccc(OCc3cc(CCC(=O)NS(=O)(=O)c4ccccc4)oc3C)cc2)cc1 [Compound 40, N-{3-[4-(4′-Methoxy-biphenyl-4-yloxymethyl)-5-methyl-furan-2-yl]-propionyl}-benzene sulfonamide]
5 | < 0.1 µM | > 10 µM | > 10 µM | Cc1oc(/C=C/C(=O)O)cc1COc1ccc(-c2ccccc2)cc1 [Compound 42, 3-[4-(Biphenyl-4-yloxymethyl)-5-methyl-furan-2-yl]-acrylic acid]
6 | < 0.1 µM | > 10 µM | > 10 µM | COc1ccc(-c2ccc(OCc3cc(/C=C/C(=O)O)oc3C)cc2)cc1 [Compound 43, 3-[4-(4′-Methoxy-biphenyl-4-yloxymethyl)-5-methyl-furan-2-yl]-acrylic acid]
7 | < 0.1 µM | > 10 µM | > 10 µM | Cc1oc(S(=O)(=O)NC(=O)c2ccccc2)cc1COc1ccc(-c2ccccc2)cc1 [Compound 46, 4-(Biphenyl-4-yloxymethyl)-5-methyl-furan-2-sulfonic acid benzoylamide]
8 | < 3.16 µM | > 3.16 µM | > 10 µM | Cc1oc(C(=O)O)cc1COc1ccc2c(c1)oc1ccccc12 [Compound 50, 4-(Dibenzofuran-3-yloxymethyl)-5-methyl-furan-2-carboxylic acid]
9 | < 3.16 µM | > 31.6 µM | > 10 µM | COc1ccc(-c2ccc(OCc3cc(C(=O)O)oc3C)cn2)cc1 [Compound 56, 4-[6-(4-Methoxy-phenyl)-pyridin-3-yloxymethyl]-5-methyl-furan-2-carboxylic acid]
10 | < 1 µM | > 10 µM | > 10 µM | CCCC(=O)NS(=O)(=O)c1cc(COc2ccc(-c3ccccc3)cc2)c(C)o1 [Compound 61, 4-(Biphenyl-4-yloxymethyl)-5-methyl-furan-2-sulphonic acid butyryl-amide]
11 | < 0.1 µM | > 10 µM | > 10 µM | Cc1oc(S(=O)(=O)NC(=O)Cc2ccccc2)cc1COc1ccc(-c2ccccc2)cc1 [Compound 62, 4-(Biphenyl-4-yloxymethyl)-5-methyl-furan-2-sulphonic acid phenylacetyl-amide]
12 | < 0.316 µM | > 10 µM | > 10 µM | Cc1noc(C)c1C(=O)NS(=O)(=O)c1cc(COc2ccc(-c3ccccc3)cc2)c(C)o1 [Compound 63, 4-(Biphenyl-4-yloxymethyl)-5-methyl-furan-2-sulphonic acid (3,5-dimethyl-isoxazole-4-carbonyl)-amide]
13 | < 0.1 µM | – | – | COc1ccc(-c2ccc(OCc3cc(S(=O)(=O)NC(=O)c4c(C)noc4C)oc3C)cc2)cc1 [Compound 69, 4-(4′-Methoxy-biphenyl-4-yloxymethyl)-5-methyl-furan-2-sulphonic acid (3,5-dimethyl-isoxazole-4-carbonyl)-amide]
14 | – | > 10 µM | > 10 µM | COc1ccc(-c2ccc(OCc3cc(C(=O)NS(=O)(=O)N(C)C)oc3C)cc2)cc1 [Compound 122, N-[4-(4′-Methoxy-biphenyl-4-yloxymethyl)-5-methyl-furan-2-carbonyl]-dimethylamino-sulphonamide]
15 | – | > 10 µM | > 10 µM | COc1ccccc1-c1ccc(OCc2cc(C(=O)O)oc2C)cc1 [Compound 126, 4-(2′-Methoxy-biphenyl-4-yloxymethyl)-5-methyl-furan-2-carboxylic acid]
16 | – | > 10 µM | > 10 µM | COc1ccccc1-c1ccc(OCc2cc(C(=O)NS(=O)(=O)c3ccccc3)oc2C)cc1 [Compound 127, N-[4-(2′-Methoxy-biphenyl-4-yloxymethyl)-5-methyl-furan-2-carbonyl]-benzenesulphonamide]
17 | – | > 10 µM | > 10 µM | Cc1oc(C(=O)O)cc1COc1ccc(-c2ccc(OC(F)F)cc2)cc1 [Compound 129, 4-(4′-Difluoromethoxy-biphenyl-4-yloxymethyl)-5-methyl-furan-2-carboxylic acid]
18 | – | > 3.16 µM | > 10 µM | Cc1oc(C(=O)NS(=O)(=O)c2ccccc2)cc1COc1ccc(-c2ccc(OC(F)F)cc2)cc1 [Compound 130, N-[4-(4′-Difluoromethoxy-biphenyl-4-yloxymethyl)-5-methyl-furan-2-carbonyl]-benzenesulphonamide]
19 | – | > 3.16 µM | > 10 µM | Cc1noc(C)c1S(=O)(=O)NC(=O)c1cc(COc2ccc(-c3ccc(OC(F)F)cc3)cc2)c(C)o1 [Compound 131, 3,5-Dimethyl-isoxazole-4-sulphonic acid [4-(4′-difluoromethoxy-biphenyl-4-yloxymethyl)-5-methyl-furan-2-carbonyl]-amide]
20 | – | > 10 µM | > 10 µM | COc1ccc(-c2ccc(OCc3cc(C(=O)NS(=O)(=O)c4ccccc4)oc3C)cc2)nc1 [Compound 132, N-{4-[4-(5-Methoxy-pyridin-2-yl)-phenoxymethyl]-5-methyl-furan-2-carbonyl}-benzenesulphonamide]
21 | – | > 10 µM | > 10 µM | COc1ccc(-c2ccc(OCc3cc(C(=O)NS(=O)(=O)c4c(C)noc4C)oc3C)cc2)nc1 [Compound 133, 3,5-Dimethyl-isoxazole-4-sulphonic acid {4-[4-(5-methoxy-pyridin-2-yl)-phenoxymethyl]-5-methyl-furan-2-carbonyl}-amide]
22 | – | > 10 µM | > 10 µM | COc1ccc(-c2ccc(OCc3cc(C(=O)NS(=O)(=O)c4ccccc4C)oc3C)cc2)nc1 [Compound 134, N-{4-[4-(5-Methoxy-pyridin-2-yl)-phenoxymethyl]-5-methyl-furan-2-carbonyl}-2-methyl-benzenesulphonamide]
23 | – | > 10 µM | > 10 µM | COc1ccc(-c2ccc(OCc3cc(C(=O)NS(=O)(=O)c4ccccc4)oc3C)cc2)c(C)c1 [Compound 145, N-[4-(4′-Methoxy-2′-methyl-biphenyl-4-yloxymethyl)-5-methyl-furan-2-carbonyl]-benzenesulphonamide]
24 | – | > 10 µM | > 10 µM | COc1ccc(-c2ccc(OCc3cc(C(=O)NS(=O)(=O)c4c(C)noc4C)oc3C)cc2)c(C)c1 [Compound 146, 3,5-Dimethyl-isoxazole-4-sulphonic acid [4-(4′-methoxy-2′-methyl-biphenyl-4-yloxymethyl)-5-methyl-furan-2-carbonyl]-amide]
25 | – | > 10 µM | > 10 µM | Cc1oc(C(=O)NS(=O)(=O)c2ccccc2)cc1CNc1ccc(-c2ccccc2)cc1 [Compound 161, N-[4-(biphenyl-4-ylaminomethyl)-5-methyl-furan-2-carbonyl]-benzenesulphonamide]
26 | – | > 10 µM | > 10 µM | Cc1ccccc1S(=O)(=O)NC(=O)c1cc(CNc2ccc(-c3ccccc3)cc2)c(C)o1 [Compound 162, N-[4-(Biphenyl-4-ylaminomethyl)-5-methyl-furan-2-carbonyl]-2-methyl-benzenesulfonamide]
27 | – | > 3.16 µM | > 10 µM | Cc1ccccc1S(=O)(=O)NC(=O)c1cc(CNc2ccc(-c3ccc(OC(F)F)cc3)cc2)c(C)o1 [Compound 173, N-{4-[(4′-Difluoromethoxy-biphenyl-4-ylamino)-methyl]-5-methyl-furan-2-carbonyl}-2-methyl-benzenesulphonamide]
